# Measured values as given in patent US8846694B2, “Pyrrolidone derivatives for use as MetAP-2 inhibitors” (Merck Patent GmbH, priority 2008, dated 2014).
# Structures can show the parent of a compound that is named as a salt.
# Biological target: MetAP-2 (Homo sapiens, UniProt P50579)
# Test: MetAP-2 activity measurement (coupled enzymatic reactions, substrate Met-Arg-Ser, photometric at 450 nm)
# Format: biochemical
# Conditions: read-out: IC50 enzyme (Inhibition of MetAP-2)
# Outline: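 Human MetAP-2 cleaves Met-Arg-Ser; the freed methionine is oxidized by L-amino acid oxidase, and the resulting H2O2 drives peroxidase oxidation of dianisidine, read continuously at 450 nm. Activity is taken as the slope in the visually linear region.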
# Sequence of MetAP-2 (P50579 whole entry, species assumed): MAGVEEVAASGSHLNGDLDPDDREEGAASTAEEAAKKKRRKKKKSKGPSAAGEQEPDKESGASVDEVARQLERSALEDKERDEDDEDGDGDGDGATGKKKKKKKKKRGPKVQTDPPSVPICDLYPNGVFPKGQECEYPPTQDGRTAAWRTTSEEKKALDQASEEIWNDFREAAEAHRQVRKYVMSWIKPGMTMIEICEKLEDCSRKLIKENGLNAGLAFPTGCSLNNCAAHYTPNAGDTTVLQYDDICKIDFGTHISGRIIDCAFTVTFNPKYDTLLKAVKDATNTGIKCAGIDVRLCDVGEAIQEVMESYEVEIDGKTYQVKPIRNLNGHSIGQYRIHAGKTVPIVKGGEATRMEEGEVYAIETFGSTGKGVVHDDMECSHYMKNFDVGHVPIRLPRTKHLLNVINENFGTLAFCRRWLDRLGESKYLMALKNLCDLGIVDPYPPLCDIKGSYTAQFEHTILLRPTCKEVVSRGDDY
compound,measurement,value
"NC(=O)CC[C@H](N)C(=O)Nc1ccc2cccc(OC[C@H]3CCCN3c3ncnc4[nH]cnc34)c2c1 [A165, N-(1-({8-[(R)-1-(9H-Purin-6-yl)pyrrolidin-2-yl-methoxy]naphthalen-2-yl})-(S)-2-aminopentan-5-amide * HCl]",IC50,1000 to 10000 nM
"O=CN1CCN(c2ccc3cccc(OC[C@H]4CCCN4c4ncnc5[nH]cnc45)c3c2)CC1 [A166, 4-{8-[(R)-1-(9H-Purin-6-yl)pyrrolidin-2-ylm-ethoxy]naphthalen-2-yl}piperazine-1-carbaldehyde]",IC50,10 to 1000 nM
"CC(C)(C)OC(=O)NCC(=O)N1CCN(c2ccc3cccc(OC[C@H]4CCCN4c4ncnc5[nH]cnc45)c3c2)CC1 [A167, tert-Butyl [2-oxo-2-(4-{8-[(R)-1-(9H-purin-6-yl)-pyrrolidin-2-ylmethoxy]naphthalen-2-yl}-piperazin-1-yl)ethyl]carbamate]",IC50,1000 to 10000 nM
"NCC(=O)N1CCN(c2ccc3cccc(OC[C@H]4CCCN4c4ncnc5[nH]cnc45)c3c2)CC1 [A168, 2-Amino-1-(4-{8-[(R)-1-(9H-purin-6-yl)pyrrolidin-2-ylmethoxy]naphthalen-2-yl}piperazin-1-yl)-ethanone]",IC50,1000 to 10000 nM
"OC1CCN(C2CCc3cccc(OC[C@H]4CCCN4c4ncnc5[nH]cnc45)c3C2)C1 (stereo partly drawn) [A169, 1-{8-[(R)-1-(9H-Purin-6-yl)pyrrolidin-2-yl-methoxy]-1,2,3,4-tetrahydronaphthalen-2-yl}pyrrolidin-3-ol]",IC50,1000 to 10000 nM
"OC1CN(C2CCc3cccc(OC[C@H]4CCCN4c4ncnc5[nH]cnc45)c3C2)C1 (stereo partly drawn) [A170, 1-{8-[(R)-1-(9H-Purin-6-yl)pyrrolidin-2-yl-methoxy]-1,2,3,4-tetrahydronaphthalen-2-yl}azetidin-3-ol]",IC50,10 to 1000 nM
"CC(=O)NC1CCN(C2CCc3cccc(OC[C@H]4CCCN4c4ncnc5[nH]cnc45)c3C2)C1 (stereo partly drawn) [A171, N-(1-{8-[(R)-1-(9H-Purin-6-yl)pyrrolidin-2-yl-methoxy]-1,2,3,4-tetrahydronaphthalen-2-yl}pyrrolidin-3-yl)acetamide]",IC50,1000 to 10000 nM
"c1ccc2c(NCCN3CCOCC3)ncc(OC[C@H]3CCCN3c3ncnc4[nH]cnc34)c2c1 [A172, (2-Morpholin-4-ylethyl)-{4-[(R)-1-(9H-purin-6-yl)-pyrrolidin-2-ylmethoxy]isoquinolin-1-yl}amine]",IC50,1000 to 10000 nM
"CN(C)C(=O)CC1CCc2c(OC[C@H]3CCCN3c3ncnc4[nH]cnc34)cccc2C1=O (stereo partly drawn) [A173, N,N-Dimethyl-2-{1-oxo-5-[(R)-1-(9H-purin-6-yl)-pyrrolidin-2-ylmethoxy]-1,2,3,4-tetrahydro-naphthalen-2-yl}acetamide]",IC50,10 to 1000 nM
"CN(C)C(=O)C[C@@H]1CCc2c(OC[C@H]3CCCN3c3ncnc4[nH]cnc34)cccc2C1=O [A174, N,N-Dimethyl-2-{(S)-1-oxo-5-[(R)-1-(9H-purin-6-yl)pyrrolidin-2-ylmethoxy]-1,2,3,4-tetrahydro-naphthalen-2-yl}acetamide]",IC50,10 to 1000 nM
"CN(C)C(=O)C[C@H]1CCc2c(OC[C@H]3CCCN3c3ncnc4[nH]cnc34)cccc2C1=O [A175, N,N-Dimethyl-2-{(R)-1-oxo-5-[(R)-1-(9H-purin-6-yl)pyrrolidin-2-ylmethoxy]-1,2,3,4-tetrahydro-naphthalen-2-yl}acetamide]",IC50,10 to 1000 nM
"CCNC(=O)CC1CCc2c(OC[C@H]3CCCN3c3ncnc4[nH]cnc34)cccc2C1=O (stereo partly drawn) [A176, N-Ethyl-2-{1-oxo-5-[(R)-1-(9H-purin-6-yl)-pyrrolidin-2-ylmethoxy]-1,2,3,4-tetrahydro-naphthalen-2-yl}acetamide]",IC50,10 to 1000 nM
"NC(=O)C[C@@H](N)C(=O)Nc1ccc2cccc(OC[C@H]3CCCN3c3ncnc4[nH]cnc34)c2c1 [A177, (R)-2-Amino-N1-{8-[(R)-1-(9H-purin-6-yl)-pyrrolidin-2-ylmethoxy]naphthalen-2-yl}succinamide]",IC50,1000 to 10000 nM
"c1ccc2c(NCCCN3CCOCC3)ncc(OC[C@H]3CCCN3c3ncnc4[nH]cnc34)c2c1 [A178, (3-Morpholin-4-ylpropyl)-{4-[(R)-1-(9H-purin-6-yl)pyrrolidin-2-ylmethoxy]isoquinolin-1-yl}amine]",IC50,1000 to 10000 nM
"CNC(=O)CC1CCc2c(OC[C@H]3CCCN3c3ncnc4[nH]cnc34)cccc2C1=O (stereo partly drawn) [A179, N-Methyl-2-{1-oxo-5-[(R)-1-(9H-purin-6-yl)-pyrrolidin-2-ylmethoxy]-1,2,3,4-tetrahydro-naphthalen-2-yl}acetamide]",IC50,10 to 1000 nM
"O=C(CC1CCc2c(OC[C@H]3CCCN3c3ncnc4[nH]cnc34)cccc2C1=O)NCCO (stereo partly drawn) [A180, N-(2-Hydroxyethyl)-2-{1-oxo-5-[(R)-1-(9H-purin-6-yl)pyrrolidin-2-ylmethoxy]-1,2,3,4-tetrahydro-naphthalen-2-yl}acetamide]",IC50,10 to 1000 nM
"CN(C)CCNc1ncc(OC[C@H]2CCCN2c2ncnc3[nH]cnc23)c2ccccc12 [A181, N,N-Dimethyl-N′-{4-[(R)-1-(9H-purin-6-yl)-pyrrolidin-2-ylmethoxy]isoquinolin-1-yl}ethane-1,2-diamine]",IC50,10 to 1000 nM
CN(C)CCCNc1ncc(OC[C@H]2CCCN2c2ncnc3[nH]cnc23)c2ccccc12 [A182],IC50,10 to 1000 nM
"O=C(O)CC[C@H](NC(=O)O)C(=O)Nc1ccc2cccc(OC[C@H]3CCCN3c3ncnc4[nH]cnc34)c2c1 [A183, (S)-4-Carboxyamino-4-{8-[(R)-1-(9H-purin-6-yl)-pyrrolidin-2-ylmethoxy]naphthalen-2-yl-carbamoyl}butyric acid]",IC50,> 10000 nM
"CCOC(=O)c1c(OC[C@H]2CCCN2c2ncnc3[nH]cnc23)c2cc(F)ccc2n1C [A184, Ethyl 5-fIuoro-1-methyl-3-[(R)-1-(9H-purin-6-yl)-pyrrolidin-2-ylmethoxy]-1H-indole-2-carboxylate]",IC50,> 10000 nM
"CCOC(=O)Cn1c(C(=O)OCC)c(OC[C@H]2CCCN2c2ncnc3[nH]cnc23)c2cc(F)ccc21 [A185, Ethyl 1-ethoxycarbonylmethyl-5-fluoro-3-[(R)-1-(9H-purin-6-yl)pyrrolidin-2-ylmethoxy]-1H-indole-2-carboxylate]",IC50,> 10000 nM
"O=C1OCCC1CCOc1ccc2cccc(OC[C@H]3CCCN3c3ncnc4[nH]cnc34)c2c1 (stereo partly drawn) [A186, 3-(2-{8-[(R)-1-(9H-Purin-6-yl)pyrrolidin-2-yl-methoxy]naphthalen-2-yloxy}ethyl)dihydrofuran-2-one]",IC50,1000 to 10000 nM
"CC(C)(C)OC(=O)N[C@@H](CCC(N)=O)C(=O)N1CCc2cccc(OC[C@H]3CCCN3c3ncnc4[nH]cnc34)c2C1 [A187, tert-Butyl ((S)-3-carbamoyl-1-{8-[(R)-1-(9H-purin-6-yl)pyrrolidin-2-ylmethoxy]-3,4-dihydro-1H-isoquinoline-2-carbonyl}propyl)carbamate]",IC50,1000 to 10000 nM
"CC(C)(C)OC(=O)N[C@H](CC(N)=O)C(=O)N1CCc2cccc(OC[C@H]3CCCN3c3ncnc4[nH]cnc34)c2C1 [A188, tert-Butyl ((R)-1-carbamoylmethyl-2-oxo-2-{8-[(R)-1-(9H-purin-6-yl)pyrrolidin-2-ylmethoxy]-3,4-dihydro-1H-isoquinolin-2-yl}ethyl)carbamate]",IC50,1000 to 10000 nM
"CC(C)(C)OC(=O)N[C@@H](Cc1c[nH]cn1)C(=O)N1CCc2cccc(OC[C@H]3CCCN3c3ncnc4[nH]cnc34)c2C1 [A189, tert-Butyl ((S)-1-(1H-imidazol-4-ylmethyl)-2-oxo-2-{8-[(R)-1-(9H-purin-6-yl)pyrrolidin-2-yl-methoxy]-3,4-dihydro-1H-isoquinolin-2-yl}ethyl)-carbamate]",IC50,1000 to 10000 nM
"Cn1c(C(=O)O)c(OC[C@H]2CCCN2c2ncnc3[nH]cnc23)c2cc(F)ccc21 [A190, 5-Fluoro-1-methyl-3-[(R)-1-(9H-purin-6-yl)-pyrrolidin-2-ylmethoxy]-1H-indole-2-carboxylic acid]",IC50,> 10000 nM
"c1ccc2c(OC[C@H]3CCCN3c3ncnc4[nH]cnc34)cc(CNCCN3CCOCC3)nc2c1 [A191, (2-Morpholin-4-ylethyl)-{4-[(R)-1-(9H-purin-6-yl)pyrrolidin-2-ylmethoxy]quinolin-2-yl-methyl}amine]",IC50,10 to 1000 nM
"O=C1CC[C@@H](C(=O)N2CCc3cccc(OC[C@H]4CCCN4c4ncnc5[nH]cnc45)c3C2)N1 [A192, (S)-5-{8-[(R)-1-(9H-Purin-6-yl)pyrrolidin-2-yl-methoxy]-3,4-dihydro-1H-isoquinoline-2-carbonyl}pyrrolidin-2-one]",IC50,10 to 1000 nM
"CC(C)(C)OC(=O)NCCCC[C@H](NC(=O)OCc1ccccc1)C(=O)N1CCc2cccc(OC[C@H]3CCCN3c3ncnc4[nH]cnc34)c2C1 [A193, tert-Butyl ((S)-5-benzyloxycarbonylamino-6-oxo-6-{8-[(R)-1-(9H-purin-6-yl)pyrrolidin-2-yl-methoxy]-3,4-dihydro-1H-isoquinolin-2-yl}hexyl)-carbamate]",IC50,> 10000 nM
"NC(=O)C[C@@H](N)C(=O)N1CCc2cccc(OC[C@H]3CCCN3c3ncnc4[nH]cnc34)c2C1 [A194, (R)-3-Amino-4-oxo-4-{8-[(R)-1-(9H-purin-6-yl)-pyrrolidin-2-ylmethoxy]-3,4-dihydro-1H-isoquinolin-2-yl}butyramide]",IC50,10 to 1000 nM
"N[C@@H](Cc1c[nH]cn1)C(=O)N1CCc2cccc(OC[C@H]3CCCN3c3ncnc4[nH]cnc34)c2C1 [A195, (S)-2-Amino-3-(1H-imidazol-4-yl)-1-{8-[(R)-1-(9H-purin-6-yl)pyrrolidin-2-ylmethoxy]-3,4-dihydro-1H-isoquinolin-2-yl}propan-1-one]",IC50,10 to 1000 nM
"O=C(O)CCCCOc1ccc2cccc(OC[C@H]3CCCN3c3ncnc4[nH]cnc34)c2c1 [A196, 5-{8-[(R)-1-(9H-Purin-6-yl)pyrrolidin-2-yl-methoxy]naphthalen-2-yloxy}pentanoic acid]",IC50,> 10000 nM
"Cn1c(C(=O)NCc2ccc(F)cc2)c(OC[C@H]2CCCN2c2ncnc3[nH]cnc23)c2cc(F)ccc21 [A197, N-(4-Fluorobenzyl)-5-fluoro-1-methyl-3-[(R)-1-(9H-purin-6-yl)pyrrolidin-2-ylmethoxy]-1H-indole-2-carboxamide]",IC50,> 10000 nM
"Cn1c(C(=O)OCCc2ccc(F)cc2)c(OC[C@H]2CCCN2c2ncnc3[nH]cnc23)c2cc(F)ccc21 [A198, 2-(4-Fluorophenyl)ethyl 5-fluoro-1-methyl-3-[(R)-1-(9H-purin-6-yl)pyrrolidin-2-ylmethoxy]-1H-indole-2-carboxylate]",IC50,> 10000 nM
